In patent US8704037B2, “Targeted cell death” (priority 2007, dated 2014):

Legend:
[1] = tested on: GFAP+ cells (astrocytes); assay: pLpGFAP(iCP9)MG injected into corpus callosum, then CID into ipsilateral ventricle; assay type: in vivo, rat; settings: 24 hours after CID
Description: The system was tested in vivo to ensure that cell specific apoptosis could be induced and the timing of cell ablation controlled as it was in vitro. To this end, virus was injected into the corpus callosum of adult Fischer rats and then three weeks later CID was administered into the ipsilateral ventricle. Rats were sacrificed 24-hours thereafter, brains removed in whole, fixed and cyrosectioned for analysis. […] The TUNEL (TdT-mediated dUTP-X nick end-labeling) system adds a tag on to DNA that has been fragmented during the apoptosis cascade allowing for labeling using standard immunohistochemistry. Thin sections derived from control rats receiving glycerol rather than CID were TUNEL negative. Consecutive thin sections were then stained with anti-GFAP antibody to identify astrocytes. […] This confirmed that in vivo the iCP9 system induces apoptosis only after CID administration and effectively ablates GFAP+ astrocytes.

[2] = tested on: GFAP+ cells (astrocytes); assay: Pan purified GFAP+ cultures infected with pLpGFAP(iCP9)MG and exposed to CID; assay type: cell-based; settings: 4 hours after CID
From the text: To test the specificity of the GFAP promoter system, GFAP+ pan purified cultures (cultures of purified astrocytes) were transfected with pLpGFAP(iCP9)MG and exposed to CID.

[3] = tested on: MBP+ cells (oligodendrocytes); assay: Mixed cortical cultures infected with pLpMBP(iCP9)MG and exposed to CID; assay type: cell-based, rat
Description: High density mixed cortical cultures were established after isolation of cerebral cortices from 3 Fischer rats as previously described. Cerebral cortices were removed and place in ice-cold Hanks' balanced salt solution, centrifuged and digested with trypsin at 37° for 10 minutes. Tissue was centrifuged and resuspended in minimal essential medium with Earle's salt (Invitrogen) containing heat-inactivated fetal bovine serum and horse serum. Cell suspension was passed through cell strainers and plated. After three hours the medium is changed to Neurobasal medium supplemented with B27 MinusAO (Invitrogen). Cultures were maintained for seven days and then immunohistochemical staining was performed to verify the composition of the cultures.
The mixed primary cortical cultures (consisting of all CNS cell types) were infected with pLpMBP(iCP9)MG and exposed to CID and then analyzed for cell death of oligodendrocytes (MBP+ cells). The MBP promoter was designed to induce cell death only in MBP+ cells, the majority of which are mature oligodendrocytes.

[4] = tested on: primary oligodendrocyte cultures; settings: pΔmbpICP9/mEGFP virus; based on published data in other cell types (Straathof et al., 2005); cited from earlier work
[5] = tested on: infected region of the CNS; assay: pΔmbpICP9/mEGFP virus applied to the CNS, then intraperitoneal CID; assay type: in vivo, rat; settings: CID via intraperitoneal injection after virus injection
Description: The virus described above, pΔmbpICP9/mEGFP, which contains the inducible caspase 9 sequence was applied to the CNS of adult rats to create an in vivo model of CNS demyelination. Administration of the viral vector allowed effective transfer of genetic information in a variable area of parenchyma based on the rate of administration (convective distribution) and viral titer. […] First, adult Fischer rats were anaesthetized by intraperitoneal injection of ketamine hydrochloride (80 mg/kg) and xylazine ([…]) and placed in a stereotactic frame. A midline scalp incision is made. Access to brain parenchyma was accomplished by placement of a right-sided burr hole through the skull, at various predetermined coordinates depending on the desired location of the lesion. […] The volume of viral vector (e.g., lentivirus) delivered depends upon the infection efficacy as determined herein and the target area size. After injection, the needle is left in place for five minutes and then slowly withdrawn over the next four minutes. The skin was closed with sutures.
For virus administration to the spinal cord an incision was made in the thoracic spine followed by a lamenectomy to expose the spinal cord. A No. 32S-gauge needle was passed into the posterior column at predetermined coordinates.

[6] = tested on: A2B5+ cells; assay: Mixed cortical cultures infected with pLpPDGFR(iCP9)MG and exposed to CID; assay type: cell-based, rat; settings: four hours after CID, loss of viable cell morphology
From the text: To confirm the cell specificity of the PDGFR-α promoter system, rat-derived primary cortical cultures were infected with pLpPDGFR(iCP9)MG virus. […] This provides data supporting the oligoprecursor-specificity of the PDGFR-α promoter system.

[7] = tested on: oligodendrocytes (MBP staining cells); assay: pLpMBP(iCP9)MG injected into corpus callosum, then CID; assay type: in vivo, rat; settings: after CID
[8] = tested on: 293T cells; assay: CID-induced apoptosis in 293T cells transfected with iCP9 lentivirus or control virus; assay type: cell-based
Description: (§1) EGFP is also produced from the same viral plasmid and promoter. […] However, cells not transfected with virus (EGFP negative) persisted in culture. […] A Cell Death Detection ELISA Plus (Roche Inc) was also performed to determine the level of apoptosis in culture after cells infected with various dilutions of virus were exposed to CID.

[9] = tested on: primary oligodendrocyte cultures; assay: CID-induced cell death in primary oligodendrocyte cultures transduced with iCP9 virus; assay type: cell-based, rat; settings: CID 10 nM; iCP9-expressing primary oligodendrocyte cultures; fluorescent microscope and Methylene Blue viability staining
Description: To induce timely cell death. Collected virus was used to transduce primary oligodendrocyte cultures that have been established. Cells were cultured and evaluated using fluorescent microscopy for the expression of GFP. The extent of GFP positive cells correlated with the viral infection efficacy. Cell protein isolation was conducted and protein isolates were subjected to Western blot transfer to detect stable expression of the iCP9 protein. The resultant membrane was probed with anti-caspase 9 antibody (R&D Systems Inc. #AF8301). Once the stable expression of iCP9 was confirmed at the protein level with Western blot techniques, the CID was applied to these cells in culture at a 10 nM concentration. […] Cell death was detected by viewing cultures under the fluorescent microscope and by using Methylene Blue (Sigma) viability staining of cells in culture after exposure to the CID. All experiments were run in parallel using the astrocyte-derived U87 cell line as a negative control.
Establish primary oligodendrocyte cultures. […] The status of cellular differentiation was monitored by noting the change in cellular morphology in culture. […]
Once this system and differentiation pattern was confirmed, A2B5^+ primary cell cultures were cultured in pΔmbpICP9/mEGFP viral supernatant for 8 hours. […] Infected cells expressed EGFP and were readily identified using the proper fluorescent filter system. […]

[10] = tested on: cells infected with virus encoding iCP9; assay: Cell Death Detection ELISA Plus after virus dilutions and CID; assay type: cell-based; settings: various dilutions of iCP9 virus, 4 hours after CID
Description: FIG. 6 is a graph showing cells exposed to various dilutions of virus encoding the iCP9 gene and then CID was added to the culture media. 4 hours later, Apoptosis ELISA was performed. […] Thus apoptosis correlated with iCP9 gene expression. X-axis is virus dilution. Y-axis is ELISA absorption at 405 nm.
as §1

CC[C@H](C(=O)N1CCCC[C@H]1C(=O)O[C@H](CCc1ccc(OC)c(OC)c1)c1cccc(OCC(=O)NCC(CNC(=O)COc2cccc([C@@H](CCc3ccc(OC)c(OC)c3)OC(=O)[C@@H]3CCCCN3C(=O)[C@@H](CC)c3cc(OC)c(OC)c(OC)c3)c2)CN(C)C)c1)c1cc(OC)c(OC)c(OC)c1 [CID]
anti-GFAP staining at area of viral infection [1]: GFAP+ cells were not detected at the area of viral infection | TUNEL staining ([1]; glycerol controls TUNEL negative): TUNEL positive staining at the site of virus infection | EGFP positive cells after CID [2]: a decrease in EGFP positive cells | morphology of A2B5/EGFP, GFAP/EGFP and O4/EGFP positive cells ([3]; non-target cell types): appeared morphologically normal before and after CID exposure | morphology of MBP-positive, EGFP-positive cells after CID ([3]; relative to cells not exposed to CID): appeared disrupted | time to cell death of oligodendrocytes after CID [4]: 4 to 6 h | apoptosis of infected CNS region [5]: resulting in apoptosis of the infected region of the CNS | apoptosis of A2B5+ cells [6]: identified undergoing apoptosis | anti-MBP staining at site of infection ([7]; glycerol controls normal): failed to stain with anti-MBP antibody at the site of infection | TUNEL positive cells ([7]; not in glycerol controls): TUNEL positive cells were identified at the site of infection | apoptosis of EGFP-positive cells after CID ([8]; 293T cells, pLpCMV(iCP9)MG virus): rapidly underwent apoptosis | EGFP-positive cells after CID, control virus ([8]; cultures transfected with control virus pLpCMVXMG): EGFP-positive cells persisted | cell death of infected cells [9]: induced the cellular death of infected cells | apoptosis level (ELISA absorption at 405 nm) [10]: Apoptosis levels decreased with dilution of virus
